# Measurements as given in patent EP2272817A1, “PAI-1 INHIBITOR” (Institute of Medicinal Molecular Design, Inc., priority 2008, dated 2009).
# Target: recombinant human PAI-1 (Homo sapiens, UniProt P05121)
# Assay: biochemical
# Settings: read-out: Inhibition Rate of PAI Activity (%)
# 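Also: PAI-1 preincubated with compound, then two-chain tPA added, residual tPA activity read with fluorogenic Pyr-Gly-Arg-MCA substrate after 30 min at room temperature.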
# Chain of recombinant human PAI-1 (P05121 24-402): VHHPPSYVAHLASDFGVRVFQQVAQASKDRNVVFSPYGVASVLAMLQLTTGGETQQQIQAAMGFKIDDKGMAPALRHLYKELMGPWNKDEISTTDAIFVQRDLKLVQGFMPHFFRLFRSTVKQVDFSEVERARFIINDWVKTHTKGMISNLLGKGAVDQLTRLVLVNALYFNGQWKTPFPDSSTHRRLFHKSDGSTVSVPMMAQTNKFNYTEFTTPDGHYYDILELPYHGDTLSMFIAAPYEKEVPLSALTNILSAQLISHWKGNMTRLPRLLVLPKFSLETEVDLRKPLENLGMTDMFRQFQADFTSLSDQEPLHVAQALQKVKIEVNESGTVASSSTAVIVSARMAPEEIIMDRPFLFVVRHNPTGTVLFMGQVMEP
inhibition at 5 µM,inhibition at 10 µM,inhibition at 25 µM,SMILES
23%,47%,94%,O=C(O)/C=C/c1cc(-c2ccc(OC(F)(F)F)cc2)ccc1Oc1ccc(OC(F)(F)F)cc1 [Compound 15]
22%,53%,97%,O=C(O)CCc1cc(-c2ccc(OC(F)(F)F)cc2)ccc1OCc1cccc(C(F)(F)F)c1 [Compound 58]

SMILES,inhibition at 5 µM,inhibition at 10 µM,inhibition at 25 µM
Cc1cc(C)cc(COc2ccc(-c3ccc(OC(F)(F)F)cc3)cc2CC(=O)O)c1 [Compound 11],41%,84%,99%

# Same assay, conditions: read-out: Inhibition Rate of PAI-1 Activity (%)
SMILES,inhibition at 5 µM,inhibition at 10 µM,inhibition at 25 µM,inhibition at 0.5 µM,inhibition at 1 µM
COc1ccc(-c2ccc(N(Cc3ccc(C(C)(C)C)cc3)C(=O)C(=O)O)cc2)cc1 [Compound 126],16%,43%,–,–,–
CC(C)(C)c1ccc(CN(C(=O)C(=O)O)c2ccccc2-c2ccc(OC(F)(F)F)cc2)cc1 [Compound 148],17%,55%,98%,–,–
O=C(O)C(=O)N(Cc1ccccc1)c1c(Cl)cc(-c2ccc(OC(F)(F)F)cc2)cc1Cl [Compound 180],19%,36%,71%,–,–
CC(C)(C)c1ccc(Oc2cc(-c3ccc(OC(F)(F)F)cc3)ccc2/C=C/C(=O)O)cc1 [Compound 79],39%,84%,90%,–,–
CC(C)(C)c1ccc(CN(C(=O)C(=O)O)c2ccc(-c3ccc(F)cc3)cc2)cc1 [Compound 127],21%,43%,–,–,–
Cc1ccc(-c2ccccc2)cc1N(Cc1ccc(C(C)(C)C)cc1)C(=O)C(=O)O [Compound 137],–,5%,61%,–,–
CC(C)(C)c1ccc(COc2cccc(Oc3ccc(OC(F)(F)F)cc3)c2/C=C/C(=O)O)cc1 [Compound 85],40%,61%,85%,–,–
CC(C)(C)c1ccc(N(C(=O)C(=O)O)c2cccc(-c3ccc(OC(F)(F)F)cc3)c2)cc1 [Compound 158],26%,61%,> 99%,–,–
COc1ccc(-c2ccc(OC(F)(F)F)cc2)cc1N(Cc1ccc(C(C)(C)C)cc1)C(=O)C(=O)O [Compound 182],56%,85%,89%,–,–
Cc1ccc(N(Cc2ccc(C(C)(C)C)cc2)C(=O)C(=O)O)cc1Oc1ccc(OC(F)(F)F)cc1 [Compound 187],75%,92%,88%,–,–
CC(C)(C)c1ccc(Oc2ccc(Oc3ccc(OC(F)(F)F)cc3)cc2/C=C/C(=O)O)cc1 [Compound 99],31%,66%,99%,–,–
CCCCc1ccc(-c2ccc(N(Cc3ccc(C(C)(C)C)cc3)C(=O)C(=O)O)cc2)cc1 [Compound 164],40%,79%,96%,–,–
CC(C)(C)c1ccc(CN(C(=O)C(=O)O)c2ccc(-c3ccc(C(F)(F)F)cc3)cc2)cc1 [Compound 145],7%,35%,74%,–,–
CC(C)(C)c1ccc(COc2ccc(-c3ccc(OC(F)(F)F)cc3)cc2OCc2nn[nH]n2)cc1 [Compound 122],29%,63%,99%,–,–
COc1cc(-c2ccc(OC(F)(F)F)cc2)cc(CCC(=O)O)c1OCc1ccc(C(C)(C)C)cc1 [Compound 82],26%,59%,98%,–,–
CC(C)(C)c1ccc(COc2cc(-c3ccc(OC(F)(F)F)cc3)ccc2/C=C/C(=O)O)cc1 [Compound 75],25%,53%,91%,–,–
CC(C)(C)c1ccc(N(C(=O)C(=O)O)c2ccc(-c3ccc(OC(F)(F)F)cc3)cc2)cc1 [Compound 128],58%,89%,–,–,–
CC(C)(C)c1ccc(-c2ccc(N(Cc3ccc(C(F)(F)F)cc3)C(=O)C(=O)O)cc2)cc1 [Compound 205],50%,80%,98%,–,–
CCCCc1ccc(CN(C(=O)C(=O)O)c2ccc(-c3ccc(OC(F)(F)F)cc3)cc2)cc1 [Compound 167],37%,75%,87%,–,–
O=C(O)C(=O)N(Cc1ccc(OC(F)(F)F)cc1)c1ccc(-c2ccccc2)cc1 [Compound 183],–,11%,29%,–,–
CC(OCC(=O)O)c1cc(-c2ccc(OC(F)(F)F)cc2)ccc1OCc1ccc(C(C)(C)C)cc1 (centres unmarked) [Compound 108],52%,86%,95%,–,–
CC(C)(C)c1ccc(COc2c(Cl)cc(-c3ccc(OC(F)(F)F)cc3)cc2/C=C/C(=O)O)cc1 [Compound 91],30%,67%,96%,–,–
Cc1cc(-c2ccc(OC(F)(F)F)cc2)ccc1N(Cc1ccc(C(C)(C)C)cc1)C(=O)C(=O)O [Compound 146],33%,73%,90%,–,–
CC(C)(C)c1ccc(N(C(=O)C(=O)O)c2ccccc2-c2ccc(OC(F)(F)F)cc2)cc1 [Compound 157],25%,56%,96%,–,–
O=C(O)C(=O)N(Cc1ccc(O)cc1)c1ccc(-c2ccc(OC(F)(F)F)cc2)cc1 [Compound 181],10%,11%,31%,–,–
CC(C)(C)c1ccc(COc2c(/C=C/C(=O)O)cccc2-c2ccc(OC(F)(F)F)cc2)cc1 [Compound 87],44%,81%,96%,–,–
Cc1ccc(CN(C(=O)C(=O)O)c2ccc(-c3ccc(OC(F)(F)F)cc3)cc2)cc1 [Compound 143],–,1%,22%,–,–
CC(C)(C)c1ccc(N(C(=O)C(=O)O)c2ccc(Oc3ccc(OC(F)(F)F)cc3)cc2)cc1 [Compound 165],27%,64%,96%,–,–

# Continued, values first:
inhibition at 5 µM,inhibition at 10 µM,inhibition at 25 µM,inhibition at 0.5 µM,inhibition at 1 µM,SMILES
2%,8%,23%,–,–,CC(C)(C)CN(C(=O)C(=O)O)c1ccc(-c2ccc(OC(F)(F)F)cc2)cc1 [Compound 255]
45%,71%,95%,–,–,O=C(O)C(=O)N(CCCCCc1ccccc1)c1ccc(-c2ccc(OC(F)(F)F)cc2)cc1 [Compound 228]
44%,72%,88%,–,–,CC(C)(C)c1ccc(CN(C(=O)C(=O)O)c2ccc(OCc3ccc(OC(F)(F)F)cc3)c(OCc3ccc(OC(F)(F)F)cc3)c2)cc1 [Compound 622]
41%,77%,95%,–,–,CC(C)(C)c1ccc(CN(C(=O)C(=O)O)c2ccccc2OCc2ccc(OC(F)(F)F)cc2)cc1 [Compound 620]
56%,89%,88%,–,–,CC(C)(C)c1ccc(CN(C(=O)C(=O)O)c2ccc(SCc3ccc(OC(F)(F)F)cc3)cc2)cc1 [Compound 630]
42%,64%,83%,–,–,CC(C)(Nc1cc(-c2ccc(OC(F)(F)F)cc2)ccc1OCc1ccc(C(C)(C)C)cc1)C(=O)O [Compound 420]
67%,–,–,0%,14%,CC(C)(C)c1ccc(Oc2ccc(-c3ccc(OC(F)(F)F)cc3)cc2CCC(=O)O)c(CCC(=O)O)c1 [Compound 542]
59%,83%,96%,–,–,CCCOc1ccc(-c2ccc(OC(F)(F)F)cc2)cc1N(CCCc1ccccc1)C(=O)C(=O)O [Compound 234]
67%,95%,91%,–,–,CC(C)(C)c1ccc(CN(C(=O)C(=O)O)c2ccc(Sc3ccc(OC(F)(F)F)cc3)cc2)cc1 [Compound 621]
68%,89%,–,–,–,CC(C)(C)Oc1ccc(N(CCCCc2ccccc2)C(=O)C(=O)O)cc1-c1ccc(OC(F)(F)F)cc1 [Compound 249]
37%,71%,98%,–,–,CC(C)(C)c1ccc(COc2cc(CCC(=O)O)cc(Oc3ccc(OC(F)(F)F)cc3)c2)cc1 [Compound 410]
42%,64%,89%,–,–,O=C(O)C(=O)N(CCCCc1ccccc1)c1ccc(N2CCOCC2)c(-c2ccc(OC(F)(F)F)cc2)c1 [Compound 243]
3%,9%,31%,–,–,CCCCCN(C(=O)C(=O)O)c1ccc(-c2ccc(OC(F)(F)F)cc2)cc1 [Compound 254]
48%,83%,92%,–,–,CC(C)(C)c1ccc(CN(C(=O)C(=O)O)c2cccc(OCc3ccc(OC(F)(F)F)cc3)c2)cc1 [Compound 619]
61%,–,–,4%,14%,CC(C)(C)c1ccc(COc2cc(-c3ccc(OC(F)(F)F)cc3)cc(O)c2OCC(=O)O)cc1 [Compound 546]
9%,16%,36%,–,–,O=C(O)C(=O)N(c1ccc(-c2ccc(OC(F)(F)F)cc2)cc1)C1CCCCC1 [Compound 253]
44%,79%,98%,–,–,CN(c1ccc(OC(F)(F)F)cc1)c1ccc(OCc2ccc(C(C)(C)C)cc2)c(CCC(=O)O)c1 [Compound 417]
48%,80%,94%,–,–,CCCOc1ccc(N(CCCc2ccccc2)C(=O)C(=O)O)cc1-c1ccc(OC(F)(F)F)cc1 [Compound 229]
60%,89%,96%,–,–,CC(C)Oc1ccc(N(CCCCc2ccccc2)C(=O)C(=O)O)cc1-c1ccc(OC(F)(F)F)cc1 [Compound 248]
